Where no end group is shown, it is not given here.

This note sets out measurements from patent EP1262190A1, “RFRP-CONTAINING PROLACTIN SECRETION REGULATORY AGENT” (Takeda Chemical Industries, Ltd., priority 2000, dated 2001).

Assay [1] deals with T1, Human 0T7T022 receptor-expressing CHO cells (Homo sapiens, UniProt Q9GZQ6).
T1 construct: expressed in transfected cells; host or cells: CHO cells
Briefly: Agonist activity of RF amide peptides: inhibition of forskolin-increased cAMP in human 0T7T022 receptor-expressing CHO cells. The class given is cell-based. The following applies: 1 µM forskolin, 37°C for 30 minutes, FIG. 14. The protocol:
Human 0T7T022 receptor-expressing CHO cells obtained by a modification of the method described in WO 00/29441 were inoculated on a 24-well plate in a concentration of 3 x 10^5 cells/well. After incubation overnight, the cells were rinsed with Hanks' buffer (HBSS) supplemented with 0.05% BSA and 0.2 mM IBMX, and then preincubated at 37°C for 30 minutes in the same buffer. Next, the buffer was exchanged by Hanks' buffer (HBSS) supplemented with 0.05% BSA and 0.2 mM IBMX, or HBSS further added with 1 µM forskolin only, or HBSS added with 1 µM forskolin and peptide of various concentrations, followed by incubation at 37°C for 30 minutes. After completion of the incubation, cAMP in the cells of each well was extracted and quantified according to the method of cAMP EIA Kit (Amersham Inc.). An inhibition rate of the increased cAMP level in the cells by the forskolin treatment was calculated with the respective concentrations of the peptide.

For assay [2], the system named is pituitary hormone level in plasma. In words: Effect of administration into the third ventricle on pituitary hormone level in plasma (radioimmunoassay). The assay is classed as in vivo, Wistar rats. The conditions noted are these: 10 nmols into the third ventricle; for plasma prolactin level: vs PBS control.
Assay [3] has as its target T1, Human 0T7T022 receptor-expressing CHO cells. In words: Effect of pertussis toxin on activation of human 0T7T022 receptor by RFRP peptide (cAMP production inhibition). The assay is classed as cell-based. The following applies: 0.1 µM peptide, 1 µM forskolin, cells treated with 100 ng/ml pertussis toxin, FIG. 15. The protocol:
Human 0T7T022 receptor-expressing CHO cells obtained in EXAMPLE 8 were inoculated on a 24-well plate in a concentration of 1 x 10^5 cells/well. After culturing overnight, the medium was exchanged by a medium added with 100 ng/ml pertussis toxin (Sigma, Inc.) or with a control medium followed by further incubation overnight. The cells were rinsed with Hanks' buffer (HBSS) supplemented with 0.05% BSA and 0.2 mM IBMX and then preincubated at 37°C for 30 minutes in the same buffer. Next, the cells were incubated at 37°C for 30 minutes after the buffer was exchanged by Hanks' buffer alone (HBSS) supplemented with 0.05% BSA and 0.2 mM IBMX (black column), or by HBSS further added with 1 µM forskolin only (white column), or by HBSS added with 1 µM forskolin and 0.1 µM RFRP-1-12 (peptide having the 81 (Met) to 92 (Phe) amino acid sequence in SEQ ID NO:1) (hatched column). After completion of the incubation, cAMP in the cells of each well was extracted and quantified according to the method of cAMP EIA Kit (Amersham, Inc.).
On the technique in general: Cyclic AMP is a second messenger, typically raised through Gs and lowered through Gi signalling.

For assay [4], the target named is T2, r0T7T022L receptor-expressing CHO cells (Rattus norvegicus, UniProt Q9EP86).
T2 construct: expressed in transfected cells; host or cells: CHO cells
Briefly: Reaction of receptor-expressing CHO cells with peptides in the cytosensor (acidification rate). The assay is classed as cell-based. The conditions noted are these: peptide exposure for 7 minutes and 2 seconds, FIG. 8. The text has this:
The r0T7T022L receptor-expressing CHO cells obtained in REFERENCE EXAMPLE 7 (2) above were inoculated on capsules for cytosensor in 2.7 x 10^5 cells/capsule. After culturing overnight, the cytosensor was mounted to a work station for the cytosensor. A medium for assay (low buffered RMPI1640 medium supplemented with 0.1% bovine serum albumin), that was set in the flow path of the cytosensor, was supplied to the cells in a pump cycle of ON (80 seconds) and OFF (40 seconds). A rate of change in […] from 8 to 30 seconds after the pump stopped was calculated as an acidification rate. A change of the acidification rate with passage of time was monitored; when stable reading was obtained, the flow path was switched to expose each peptide to the cells for 7 minutes and 2 seconds. In the acidification rate of each well, the data for 3 cycles immediately before the peptide exposure was made 100% for standardization.

T1 sequence (Q9GZQ6 whole entry): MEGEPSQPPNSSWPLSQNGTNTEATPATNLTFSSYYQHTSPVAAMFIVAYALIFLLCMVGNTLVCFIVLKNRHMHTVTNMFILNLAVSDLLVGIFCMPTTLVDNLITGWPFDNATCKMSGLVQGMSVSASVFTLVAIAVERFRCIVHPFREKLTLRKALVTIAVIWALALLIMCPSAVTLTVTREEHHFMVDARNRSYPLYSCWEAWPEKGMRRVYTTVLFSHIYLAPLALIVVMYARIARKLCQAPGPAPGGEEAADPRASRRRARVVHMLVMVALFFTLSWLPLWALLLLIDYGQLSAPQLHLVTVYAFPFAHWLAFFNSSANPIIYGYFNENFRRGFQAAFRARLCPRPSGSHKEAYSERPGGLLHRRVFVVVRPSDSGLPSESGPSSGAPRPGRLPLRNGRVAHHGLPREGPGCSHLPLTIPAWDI
T2 sequence (Q9EP86 whole entry): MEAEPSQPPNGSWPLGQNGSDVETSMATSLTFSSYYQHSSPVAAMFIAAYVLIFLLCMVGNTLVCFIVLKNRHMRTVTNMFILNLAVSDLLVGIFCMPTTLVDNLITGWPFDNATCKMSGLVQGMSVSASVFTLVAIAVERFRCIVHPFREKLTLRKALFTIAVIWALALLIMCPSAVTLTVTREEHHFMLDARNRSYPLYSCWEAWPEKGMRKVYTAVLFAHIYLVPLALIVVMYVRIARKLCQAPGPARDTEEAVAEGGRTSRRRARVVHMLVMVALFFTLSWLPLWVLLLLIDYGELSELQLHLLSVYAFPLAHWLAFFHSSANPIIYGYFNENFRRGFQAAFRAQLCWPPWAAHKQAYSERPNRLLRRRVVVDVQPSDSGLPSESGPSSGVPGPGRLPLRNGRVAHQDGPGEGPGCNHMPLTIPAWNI

Regarding “hRFRP-1-37: peptide having the 56 (Ser) to 92 (Phe) amino acid sequence in SEQ ID NO:1 (SLNFEELKDWGPKNVIKMSTPAVNKMPHSFANLPLRF; UniProt Q9HCQ7 56-92, looked up, fragment)”, in assay [1], the “ED50 levels (inhibition rate of the increased cAMP level in the cells by the forskolin treatment)” value amounted to 21 nM.

On to “rRFRP-1-37: peptide having the 58 (Ser) to 94 (Phe) amino acid sequence in SEQ ID NO:50 (SVTFQELKDWGAKKDIKMSPAPANKVPHSAANLPLRF; UniProt Q9ESQ9 58-94, looked up, fragment)”, for which the “ED50 levels (inhibition rate of the increased cAMP level in the cells by the forskolin treatment)” value in assay [1] is recorded as 30 nM.

MPHSFANLPLRF-NH2: the “level of ACTH in plasma” value in assay [2] was “none showed any significant change”. Besides, in assay [2], the “level of GH in plasma” value was “none showed any significant change”. Besides, in assay [2], the “level of LH in plasma” value is given as “none showed any significant change”. Further, the “level of TSH in plasma” value in assay [2] is on record as “none showed any significant change”. In addition, the plasma prolactin level entry in assay [2] (10 minutes after administration) is “tended to increase”; in assay [2] (20 minutes after administration), “significantly increased”; in assay [2] (30 minutes after administration), “significantly increased”; in assay [2] (40 minutes after administration), “significantly increased”; in assay [2] (60 minutes after administration), “a significant difference was noted”. In assay [3], the “cAMP production inhibiting activity” value is given as “lost”. Further, the “reaction of r0T7T022L-expressing CHO cells (acidification rate)” value in assay [4] is “strongly showed dose-dependent reaction”.

Turning to `CC(C)C[C@H](NC(=O)[C@H](CC(N)=O)NC(=O)[C@@H]1CCCN1C(=O)[C@@H](N)C(C)C)C(=O)N1CCC[C@H]1C(=O)N[C@@H](CCC(N)=O)C(=O)N[C@@H](CCCNC(=N)N)C(=O)N[C@@H](Cc1ccccc1)C(N)=O`, the “reaction of r0T7T022L-expressing CHO cells (acidification rate)” value in assay [4] was “strongly showed dose-dependent reaction”.

Take “Asn-Pro-Phe-Phe [NPFF, reference compound]”: in assay [1], the “ED50 levels (inhibition rate of the increased cAMP level in the cells by the forskolin treatment)” value stood at 140 nM.

Regarding “Pro-Gln-Arg-Phe-NH2 (PQRF-NH2) [PQRFamide, reference compound]”, the “ED50 levels (inhibition rate of the increased cAMP level in the cells by the forskolin treatment)” value in assay [1] is reported as at least 1000 nM.
